Patent publication US9492462B2, “Composition for elastin production” (HUMAN MATRIX SCIENCES, LLC, priority 2007, dated 2016)

Key:
Type in all cases: cell-based, human
elastin mRNA = test: Elastin mRNA level by one-step RT-PCR in normal skin fibroblasts; conditions: 24 h; 50 nM and 1 μM aldosterone, alone or with 2 μM spironolactone
Protocol: Fibroblasts were cultured to confluency in medium with 2% FBS and then in serum-free medium for 24 hours. The medium was changed again and cells were incubated for the next 24 hours in the presence and absence of in the presence of 50 nM and 1 μM aldosterone, and 2 μM spironolactone, alone or in combinations, as described in figure legend. At the end of the incubation period total RNA was extracted using the RNeasy Mini Kit, according to manufacturer's instructions. Steady-state levels of elastin mRNA were then analyzed by One-Step RT-PCR analysis. Briefly, 1 μg of total RNA was added to each one step RT-PCR (Qiagen One-Step RT-PCR Kit), and reactions were set up according to manufacturer's instructions in a total volume of 25 μl. The reverse transcription step was performed for elastin, and GAPDH reactions at 50° C. for 30 minutes, followed by 15 minutes at 95° C. The elastin PCR reaction (sense primer: [NT] ID NO: 1), antisense primer: [NT] ID NO: 2); designed to produce a 255 bp product) was performed under the following conditions: 25 cycles at 94° C. denaturation for 20 s, 63° C. annealing for 20 s, 72° C. extension for 1 min; 1 cycle at 72° C. final extension for 10 min. The collagen Type I PCR reaction (sense [NT] ID NO: 3), antisense primer: [NT] […]

normal skin fibroblasts = test: [3H]-valine incorporation into insoluble elastin, normal skin fibroblasts; conditions: 50 ng/ml IGF-I, 50 nM aldosterone, alone or in combination
Protocol: Biological effects of aldosterone and spironolactone were tested in cultures of dermal fibroblasts derived from normal skin, stretch-marked skin and dermal scars derived from Caucasian females, of different ages ranging from 30-38 years old. All fibroblasts were originally isolated by allowing them to migrate out of skin explants and then passaged by trypsinization and maintained in alpha-minimum essential medium supplemented with 20 mM Hepes, 1% antibiotics and antimycotics, 1% L-Glutamate and 2% fetal bovine serum (FBS) as previously described Hinek et al. “Impaired elastic-fiber assembly by fibroblasts from patients with either Morquio B disease or infantile GM1-gangliosidosis is linked to deficiency in the 67-kD spliced variant of beta-galactosidase.” Am J Hum Genet. 2000 July; 67(1):23-36 hereby incorporated by reference in its entirety. In all experiments, consecutive passages 3-4 were tested. Cells were densely plated (50×10^5 cells/dish) to reach confluency and then cultured for 7 days in the presence and absence of different concentrations of (10 nM-1 μM) aldosterone, 2 μM spironolactone, alone or in combinations with other reagents, as described in figure legends.
Quintuplicate, 4 day-old cultures of dermal fibroblasts maintained in the presence and absence of indicated reagents were additionally exposed for the 3 following days to 20 μCi [^3H]-valine. At the end of incubation period, the cell layers were extensively washed with PBS, scraped and boiled in 500 μl of 0.1 N NaOH for 30 minutes, to solubilize all matrix components except elastin. The resulting pellets containing the insoluble elastin were then solubilized by boiling in 200 μl of 5.7 N HCl for 1 hour, and the aliquots were mixed in scintillation fluid and counted. Aliquots taken from each culture were also used for DNA determination, according to Rodems et al., using the DNeasy Tissue System from Qiagen. Final results reflecting amounts of metabolically labeled insoluble elastin in individual cultures were normalized per their DNA content, and expressed as CPM/1 μg DNA.

[1] = tested on: skin biopsy explants derived from abdominal dermal scar; test: Organ culture of dermal scar explants, Movat's pentachrome stain; conditions: 50 nM aldosterone alone or with 2 μM spironolactone
Protocol: In order to further test whether aldosterone and spironolactone would penetrate into skin tissue and affect elastogenesis, fragments of normal skin, stretch-marked skin and dermal scars were tested in organ culture system. Skin fragments were cut into multiple 1 mm^2 pieces and placed on top of metal grids immersed in culture medium containing 5% FBS and maintained for 10 days in the presence and absence of and then cultured for 7 days in the presence of 50 nM aldosterone, and 2 μM spironolactone, alone or in combinations, as described in figure legends. The media were changed every second day.
All organ cultures were fixed in 1% buffered formalin and their transversal serial histological sections were stained with Movat's pentachrome as previously described in Hinek et al. “Proteolytic digest derived from bovine Ligamentum Nuchae stimulates deposition of new elastin-enriched matrix in cultures and transplants of human dermal fibroblasts” J Dermatol Sci. September 2005; 39(3):155-66 hereby incorporated by reference in it's entirety. Morphometric analysis was performed as described above. In each analyzed group (three explants from each patient) low-power fields (1 mm^2) of 20 serial sections stained with Movat's pentachrome were analyzed and all structures stained black (elastic fibers) were counted.

[2] = tested on: fibroblasts derived from patient with stretch marks; test: [3H]-valine incorporation into insoluble elastin, stretch-mark fibroblasts; conditions: 50 nM aldosterone alone or with 2 μM spironolactone
Protocol: Biological effects of aldosterone and spironolactone were tested in cultures of dermal fibroblasts derived from normal skin, stretch-marked skin and dermal scars derived from Caucasian females, of different ages ranging from 30-38 years old. All fibroblasts were originally isolated by allowing them to migrate out of skin explants and then passaged by trypsinization and maintained in alpha-minimum essential medium supplemented with 20 mM Hepes, 1% antibiotics and antimycotics, 1% L-Glutamate and 2% fetal bovine serum (FBS) as previously described Hinek et al. “Impaired elastic-fiber assembly by fibroblasts from patients with either Morquio B disease or infantile GM1-gangliosidosis is linked to deficiency in the 67-kD spliced variant of beta-galactosidase.” Am J Hum Genet. […] In all experiments, consecutive passages 3-4 were tested. […] The resulting pellets containing the insoluble elastin were then solubilized by boiling in 200 μl of 5.7 N HCl for 1 hour, and the aliquots were mixed in scintillation fluid and counted. […] Final results reflecting amounts of metabolically labeled insoluble elastin in individual cultures were normalized per their DNA content, and expressed as CPM/1 μg DNA.

[3] = tested on: skin biopsy explants from abdominal stretch marks; test: Organ culture of stretch-marked skin explants, Movat's pentachrome stain; conditions: 10 days, 50 nM aldosterone alone or with 2 μM spironolactone
Protocol: In order to further test whether aldosterone and spironolactone would penetrate into skin tissue and affect elastogenesis, fragments of normal skin, stretch-marked skin and dermal scars were tested in organ culture system. Skin fragments were cut into multiple 1 mm^2 pieces and placed on top of metal grids immersed in culture medium containing 5% FBS and maintained for 10 days in the presence and absence of and then cultured for 7 days in the presence of 50 nM aldosterone, and 2 μM spironolactone, alone or in combinations, as described in figure legends. The media were changed every second day. All organ cultures were fixed in 1% buffered formalin and their transversal serial histological sections were stained with Movat's pentachrome as previously described in Hinek et al. “Proteolytic digest derived from bovine Ligamentum Nuchae stimulates deposition of new elastin-enriched matrix in cultures and transplants of human dermal fibroblasts” J Dermatol Sci. September 2005; 39(3):155-66 hereby incorporated by reference in it's entirety. Morphometric analysis was performed as described above. In each analyzed group (three explants from each patient) low-power fields (1 mm^2) of 20 serial sections stained with Movat's pentachrome were analyzed and all structures stained black (elastic fibers) were counted.

`C[C@]12CCC(=O)C=C1CC[C@@H]1[C@@H]2[C@@H](O)C[C@]2(C=O)[C@@H](C(=O)CO)CC[C@@H]12` [aldosterone] was tested, and the “elastin mRNA (relative to GAPDH mRNA)” value (elastin mRNA) was “increases in an aldosterone concentration dependent manner”, the “mature, insoluble elastin concentration ([3H]-valine incorporation)” value (normal skin fibroblasts) was “improved mature elastin concentrations over untreated control” and the “deposition of collagen (yellow, Movat's pentachrome)” value ([1]; FIG. 11, vs untreated control) was “increases in deposition”. The “deposition of elastin (black, Movat's pentachrome)” value ([1]; FIG. 11, vs untreated control) was “increases in deposition”, the “elastic fibers (Movat's pentachrome)” value ([1]; superficial and deep portion of scar, 10 days) was “numerous elastic fibers” and the “concentration of mature, insoluble elastin ([3H]-valine incorporation)” value [2] was “increased”. The “elastic fibers / deposition of elastin (Movat's pentachrome)” value [3] was “thicker and longer elastic fibers”.
